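The compound was tested at five concentrations on cells cultured in 96-well plates, with a 48-hour exposure period. GI50 marks 50% less growth.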 Activity calls are given as the source filed them. No stated cut-off is given here; in the data, active = GI50 up to about 1.1 µM and inactive = higher.
Key:
Assay in all cases: NCI anticancer screen, dose series, 48 h
SNB-75 = tested on: SNB-75
BT-549 = tested on: BT-549
SK-MEL-28 = tested on: SK-MEL-28
LOX IMVI = tested on: LOX IMVI
ACHN = tested on: ACHN
UACC-62 = tested on: UACC-62
HOP-92 = tested on: HOP-92
RXF 393 = tested on: RXF 393
RPMI-8226 = tested on: RPMI-8226
U-251 = tested on: U-251
KM-20L2 = tested on: KM-20L2
HL-60 = tested on: HL-60
MDA-N = tested on: MDA-N
NCI-H226 = tested on: NCI-H226
T47D = tested on: T47D
SK-MEL-2 = tested on: SK-MEL-2
SW-620 = tested on: SW-620
PC-3 = tested on: PC-3
KM12 = tested on: KM12
A549 = tested on: A549

SMILES | GI50 (SNB-75) | GI50 (BT-549) | GI50 (SK-MEL-28) | GI50 (LOX IMVI) | GI50 (ACHN) | GI50 (UACC-62) | GI50 (HOP-92) | GI50 (RXF 393) | GI50 (RPMI-8226) | GI50 (U-251) | GI50 (KM-20L2) | GI50 (HL-60) | GI50 (MDA-N) | GI50 (NCI-H226) | GI50 (T47D) | GI50 (SK-MEL-2) | GI50 (SW-620) | GI50 (PC-3) | GI50 (KM12) | GI50 (A549)
CC(C)=CC(=O)OC1C2C(C)=CC(=O)C(O)C2(C)C2C3(O)OCC24C(CC(=O)OC14)C(C)C3O (stereo unspecified) | 14.1 nM (active) | 2.87 nM (active) | 4.61 nM (active) | 1.5 nM (active) | 22 nM (active) | 9.25 nM (active) | 6.84 nM (active) | 14.9 nM (active) | 7.55 nM (active) | 3.24 nM (active) | 31.6 nM (active) | 2.69 nM (active) | 2.08 nM (active) | 9.84 nM (active) | 2.88 nM (active) | 17.9 nM (active) | 8.22 nM (active) | 2.89 nM (active) | 13.9 nM (active) | 152 nM (active)
CCN(CC)CC(=O)O[C@]1(CC)C(=O)OCc2c1cc1n(c2=O)Cc2cc3ccccc3nc2-1 | 26.6 nM (active) | 41.3 nM (active) | 179 nM (active) | < 11.6 nM (active) | < 10 nM (active) | < 10 nM (active) | 211 nM (active) | 83.6 nM (active) | 165 nM (active) | < 10 nM (active) | 152 nM (active) | 17.1 nM (active) | 95.1 nM (active) | 20.9 nM (active) | < 10 nM (active) | 382 nM (active) | 94.6 nM (active) | 54 nM (active) | 149 nM (active) | 23.7 nM (active)
N#Cc1cc([N+](=O)[O-])ccc1NC(=O)/C(=N\NC(=O)c1ccncc1)C(c1cnc2ccc([N+](=O)[O-])cc2n1)[N+](=O)[O-] (stereo unspecified) | 1990 nM (inactive) | 1850 nM (inactive) | 2170 nM (inactive) | 759 nM (active) | 2540 nM (inactive) | 1520 nM (inactive) | 9180 nM (inactive) | 4440 nM (inactive) | 5890 nM (inactive) | 2150 nM (inactive) | 4260 nM (inactive) | 3510 nM (inactive) | 512 nM (active) | 2450 nM (inactive) | 3370 nM (inactive) | 1750 nM (inactive) | 2400 nM (inactive) | 3330 nM (inactive) | 2390 nM (inactive) | 3640 nM (inactive)
N=C1NC(=O)N2CC12 (stereo unspecified) [IMEXON] | > 100000 nM (inactive) | – | > 100000 nM (inactive) | > 100000 nM (inactive) | > 100000 nM (inactive) | > 100000 nM (inactive) | > 100000 nM (inactive) | > 100000 nM (inactive) | > 100000 nM (inactive) | > 100000 nM (inactive) | > 100000 nM (inactive) | 30500 nM (inactive) | – | > 100000 nM (inactive) | – | > 100000 nM (inactive) | > 100000 nM (inactive) | – | > 100000 nM (inactive) | > 100000 nM (inactive)

From ChEMBL document CHEMBL1201862, “PubChem BioAssay data set” (2004)
